Toxic doses and inconclusive results are not listed. How the source made its calls: active means survival T/C of 150% or more; inactive means T/C below 125% in these data.
Test system: BDF1 mice, B16 melanoma ip, median survival T/C
Experiment: NCI In Vivo Anticancer Drug Screen. Data for tumor model B16 Melanoma (intraperitoneal) in B6D2F1 (BDF1) mice
Conditions: endpoint: median survival time, higher = longer survival
Procedure: The antitumor activity of compounds was measured in mice bearing transplantable tumors. Survival or tumor size were measured and the results are expressed as the measurement made in the treated group (T) divided by the measurement made in the vehicle treated control group (C). The tumor model used in this assay is B16 Melanoma (intraperitoneal) in B6D2F1 (BDF1) mice

Measured: T/C

CCc1nc(N)nc(N)c1-c1ccc(Cl)cc1
inactive: dose: 4.0 mg/kg/injection, schedule: Q01DX009 (ip), vehicle: Klucel (hydroxypropylcellulose) (HPC) 93 % of control | dose: 4.0 mg/kg/injection, schedule: Q01DX009 (oral), vehicle: Klucel (hydroxypropylcellulose) (HPC) 102 % of control | dose: 4.0 mg/kg/injection, schedule: Q01DX009 (sc), vehicle: Klucel (hydroxypropylcellulose) (HPC) 90 % of control | dose: 4.0 mg/kg/injection, schedule: Q06HX004 (ip), vehicle: Klucel (hydroxypropylcellulose) (HPC) 107 % of control | dose: 4.0 mg/kg/injection, schedule: Q06HX008 (ip), vehicle: Klucel (hydroxypropylcellulose) (HPC) 91 % of control | dose: 8.0 mg/kg/injection, schedule: Q01DX009 (ip), vehicle: Klucel (hydroxypropylcellulose) (HPC) 95 % of control | dose: 8.0 mg/kg/injection, schedule: Q01DX009 (oral), vehicle: Klucel (hydroxypropylcellulose) (HPC) 100 % of control | dose: 8.0 mg/kg/injection, schedule: Q01DX009 (sc), vehicle: Klucel (hydroxypropylcellulose) (HPC) 92 % of control | dose: 8.0 mg/kg/injection, schedule: Q06HX004 (ip), vehicle: Klucel (hydroxypropylcellulose) (HPC) 90 % of control | dose: 8.0 mg/kg/injection, schedule: Q06HX008 (ip), vehicle: Klucel (hydroxypropylcellulose) (HPC) 104 % of control | dose: 8.0 mg/kg/injection, schedule: Q06HX012 (ip), vehicle: Klucel (hydroxypropylcellulose) (HPC) 100 % of control | dose: 16.0 mg/kg/injection, schedule: Q01DX001 (ip), vehicle: Klucel (hydroxypropylcellulose) (HPC) 96 % of control | dose: 16.0 mg/kg/injection, schedule: Q01DX001 (oral), vehicle: Klucel (hydroxypropylcellulose) (HPC) 106 % of control | dose: 16.0 mg/kg/injection, schedule: Q01DX001 (sc), vehicle: Klucel (hydroxypropylcellulose) (HPC) 113 % of control | dose: 16.0 mg/kg/injection, schedule: Q01DX009 (ip), vehicle: Klucel (hydroxypropylcellulose) (HPC) 113 % of control | dose: 16.0 mg/kg/injection, schedule: Q01DX009 (oral), vehicle: Klucel (hydroxypropylcellulose) (HPC) 113 % of control | dose: 16.0 mg/kg/injection, schedule: Q01DX009 (sc), vehicle: Klucel (hydroxypropylcellulose) (HPC) 98 % of control | dose: 16.0 mg/kg/injection, schedule: Q04DX003 (ip), vehicle: Klucel (hydroxypropylcellulose) (HPC) 86 % of control | dose: 16.0 mg/kg/injection, schedule: Q06HX004 (ip), vehicle: Klucel (hydroxypropylcellulose) (HPC) 98 % of control | dose: 16.0 mg/kg/injection, schedule: Q06HX008 (ip), vehicle: Klucel (hydroxypropylcellulose) (HPC) 108 % of control | dose: 16.0 mg/kg/injection, schedule: Q06HX012 (ip), vehicle: Klucel (hydroxypropylcellulose) (HPC) 87 % of control | dose: 16.0 mg/kg/injection, schedule: Q08DX002 (ip), vehicle: Klucel (hydroxypropylcellulose) (HPC) 87 % of control | dose: 32.0 mg/kg/injection, schedule: Q01DX001 (ip), vehicle: Klucel (hydroxypropylcellulose) (HPC) 96 % of control | dose: 32.0 mg/kg/injection, schedule: Q01DX001 (oral), vehicle: Klucel (hydroxypropylcellulose) (HPC) 104 % of control | dose: 32.0 mg/kg/injection, schedule: Q01DX001 (sc), vehicle: Klucel (hydroxypropylcellulose) (HPC) 117 % of control | dose: 32.0 mg/kg/injection, schedule: Q01DX009 (ip), vehicle: Klucel (hydroxypropylcellulose) (HPC) 102 % of control | dose: 32.0 mg/kg/injection, schedule: Q01DX009 (oral), vehicle: Klucel (hydroxypropylcellulose) (HPC) 120 % of control | dose: 32.0 mg/kg/injection, schedule: Q01DX009 (sc), vehicle: Klucel (hydroxypropylcellulose) (HPC) 103 % of control | dose: 32.0 mg/kg/injection, schedule: Q04DX003 (ip), vehicle: Klucel (hydroxypropylcellulose) (HPC) 100 % of control | dose: 32.0 mg/kg/injection, schedule: Q06HX008 (ip), vehicle: Klucel (hydroxypropylcellulose) (HPC) 100 % of control | dose: 32.0 mg/kg/injection, schedule: Q08DX002 (ip), vehicle: Klucel (hydroxypropylcellulose) (HPC) 102 % of control | dose: 64.0 mg/kg/injection, schedule: Q01DX001 (sc), vehicle: Klucel (hydroxypropylcellulose) (HPC) 117 % of control | dose: 64.0 mg/kg/injection, schedule: Q01DX009 (sc), vehicle: Klucel (hydroxypropylcellulose) (HPC) 101 % of control | dose: 64.0 mg/kg/injection, schedule: Q04DX003 (ip), vehicle: Klucel (hydroxypropylcellulose) (HPC) 100 % of control | dose: 64.0 mg/kg/injection, schedule: Q08DX002 (ip), vehicle: Klucel (hydroxypropylcellulose) (HPC) 100 % of control | dose: 128.0 mg/kg/injection, schedule: Q01DX001 (sc), vehicle: Klucel (hydroxypropylcellulose) (HPC) 106 % of control

CC(=O)CC(=O)Nc1cccc([N+](=O)[O-])c1
inactive: dose: 25.0 mg/kg/injection, schedule: Q01DX009 (ip), vehicle: Klucel (hydroxypropylcellulose) (HPC) 100 % of control | dose: 100.0 mg/kg/injection, schedule: Q01DX009 (ip), vehicle: Klucel (hydroxypropylcellulose) (HPC) 94 % of control

COc1cc2c(cc1OC)C(C#N)N(C(=O)c1ccccc1)C=C2 (stereo not drawn)
inactive: dose: 0.1 mg/kg/injection, schedule: Q01DX009 (ip), vehicle: other 102 % of control | dose: 0.19 mg/kg/injection, schedule: Q01DX009 (ip), vehicle: other 104 % of control | dose: 0.38 mg/kg/injection, schedule: Q01DX009 (ip), vehicle: other 107 % of control | dose: 0.75 mg/kg/injection, schedule: Q01DX009 (ip), vehicle: other 111 % of control | dose: 1.5 mg/kg/injection, schedule: Q01DX009 (ip), vehicle: other 112 % of control

Reference: PubChem BioAssay AID192 (DTP/NCI, 2004)
